Results on two compounds are retold here after paper PMC3479105, “K-134, a Phosphodiesterase 3 Inhibitor, Prevents Brain Damage by Inhibiting Thrombus Formation in a Rat Cerebral Infarction Model” (PLoS ONE, 2012).

Data set [1] deals with mouse platelet aggregation. The data set can be described thus: Mouse platelet aggregation in vitro (PRP, aggregometer). Type of data set: cell-based. On the procedure: Platelet-rich plasma (PRP) was prepared by centrifugation (900 rpm, 15 min, at room temperature) of blood (05PR-22 centrifuge with a 03 rotor; Hitachi, Ltd., Tokyo, Japan), and the platelet count was adjusted to 5×10^5/µL with platelet-poor plasma prepared by centrifugation (3000 rpm, 10 min, at room temperature). PRP was incubated with antiplatelet agents at 37°C for 3 min and stimulated with collagen (final concentration, 15 µg/mL; MC Medical Inc., Tokyo, Japan) or adenosine diphosphate (ADP) (final concentration, 7.5 µM; MC Medical Inc.) (n = 5). Platelet aggregation was quantified by measuring the area under the curve (AUC) during the 5-min period after addition of trigger using a light transmittance aggregometer (PAM-8C; Mebanix Co., Ltd., Tokyo, Japan).

The test system of the next data set is bleeding time. The data set can be described thus: Tail bleeding time in mice. It is filed as in vivo, mouse. To be noted: single oral 30 mg/kg, 10 min before test, control 110±5 s, not significant. On the procedure:
K-134 and warfarin (Sigma Aldrich Co., MO, USA) were suspended and dissolved in 1% HPMC, respectively, and orally administered to ICR mice at 10 min or 24 h before testing of bleeding, respectively. Each mouse was placed in a restrainer, which exposes the tail. A 27G disposable needle (Terumo Co., Tokyo, Japan) was inserted about 6 mm into a tail vein 2 cm from the tip of the tail. Immediately after the operation, sheets of filter paper were placed under the injury site every 15 sec to absorb the blood, and the time point at which no blood was observed on the filter paper was regarded as the bleeding time.

The nature of data set [2]: Plasma concentration of K-134 in mice. The following applies: male ICR mice, 10 min after administration, n = 6; for concentration at 10 min: mouse, plasma. Type of data set: in vivo, mouse. As for the experimental part: We also measured plasma concentration of K-134 at 10 min after a single oral administration of K-134 to male ICR mice (Japan SLC Inc., 5 weeks old).

Data set [3] relates to platelet aggregation ex vivo. Further details: method as in PMID 22269153. To be noted: rats, single administration 30 mg/kg; cited from earlier work.
The subject of data set [4] is platelet aggregation ex vivo. The experiment in a line: Platelet aggregation ex vivo in rats after oral dosing. To be noted: Rattus norvegicus, 300 mg/kg oral, 3 h after administration. As for the experimental part:
Cilostazol was orally administered to rats under non-fasting conditions in a single dose. […] Platelet-rich plasma (PRP) was prepared by centrifugation (450 × g, 8 min, 25°C) of blood. PRP was stimulated with adenosine diphosphate (ADP) (final concentration = 4 µM; MC Medical Inc., Tokyo, Japan) or collagen (final concentration = 5 µg/mL; MC Medical Inc.). Platelet aggregation was quantified by measuring the area under the curve (AUC) during the 5 or 7 min after addition of ADP or collagen, respectively, using a light transmittance aggregometer (Hema Tracer 313M; MC Medical Inc.).

Data set [5] can be described thus: Pharmacokinetics of cilostazol and its active metabolites in rats. Type of data set: in vivo, rat. To be noted: single oral cilostazol 300 mg/kg, non-fasting male SD rats, n = 3, parent and metabolites. On the procedure: Pharmacokinetic variables (Cmax, AUC, Tmax and T1/2) were calculated from the plasma drug concentration-time curve. Cilostazol was orally administered to rats under non-fasting conditions at a single dose of 300 mg/kg to determine the concentration-time profile in serum (n = 3). Values are means (± SEM). […]

On the set-up of data set [6]: method as in PMID 10702882. The following applies: human healthy male, single dose 100 mg of cilostazol, cited from earlier work.

Where two headings read alike, the source gives them in different places.

In general, IC50 refers to the concentration at which inhibition is half-maximal. As for `O=C(NCCCOc1ccc2[nH]c(=O)ccc2c1)N(C1CC1)[C@@H]1CCCC[C@H]1O` [K-134], the IC50 in data set [1] (ADP, read-out: IC50, mouse platelet aggregation induced by ADP) came to 6.7 µM; in data set [1] (collagen, read-out: IC50, mouse platelet aggregation induced by collagen), 5.5 µM. Besides, the bleeding time in the data set on bleeding time was 106 ± 5 s. The “Plasma concentration of K-134” value in data set [2] (30 mg/kg single oral, 30 mg/kg) stood at 13600 ± 2300 nM. In addition, the concentration at 10 min is 400 nM in data set [2] (1 mg/kg single oral), 1100 ± 200 nM in data set [2] (3 mg/kg single oral), 4300 ± 600 nM in data set [2] (10 mg/kg single oral) and 13600 ± 2300 nM in data set [2] (30 mg/kg single oral). Also, the “inhibition of ADP-induced platelet aggregation ex vivo” value in data set [3] is “about 55%”. For the same compound, the “inhibition of collagen-induced platelet aggregation ex vivo” value in data set [3] was about 79%.

A word on the inhibition: it is the relative decrease from the control value, in per cent. In general, Tmax refers to the time at which the peak concentration occurs. What is called Cmax is the highest concentration seen after dosing. One may read the half-life as the time needed for the level to fall by half in the phase considered. Regarding `O=C1CCc2cc(OCCCCc3nnnn3C3CCCCC3)ccc2N1` [cilostazol], the figures for the inhibition at 300 mg/kg in data set [4] (read-out: inhibition of ADP-induced platelet aggregation ex vivo) and in data set [4] (read-out: inhibition of collagen-induced platelet aggregation ex vivo) were 27% and 50%, respectively. In addition, the time of peak concentration (Tmax) in data set [5] (male, SD, rat, plasma, po, 300 mg/kg, read-out: Tmax) was over 3 h; in data set [5], 5.8 h. Besides, the Cmax in data set [5] (rat, plasma) was 2400 nM; in data set [6] (converted from µg/L, read-out: Cmax), 1690 nM; in data set [6] it was “about 625 µg/L”. Moreover, in data set [5] (rat, plasma), the half-life is 5.4 h. In addition, the AUC(0-t) in data set [5] (rat, plasma, read-out: AUC0-24h) stood at 30.1 µM·h. For the same compound, the “AUC0–72 h” value in data set [6] (converted from µg/L·h) is given as 21.89 µM·h; in data set [6], “about 8087 µg/L·h”.
